# Assay results taken from patent US20260285853A1, “COMPOUNDS AND METHODS FOR MODULATING SPLICING” (REMIX THERAPEUTICS INC., priority 2023, published 2026).
# Where two headings read alike, the source gives them in different places.
# Tests used:
# Assay type in all cases: cell-based
# [1] = test system: SH-SY5Y (human neuroblastoma) cells; experiment: Cell viability, Cell Titer Glo 2.0 assay; settings: read-out: Viability SHSY5Y.3 GI50
# Summary of the method: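 Following a 72 h incubation (37 °C, 5% CO2, 0.1% DMSO final), compound toxicity toward SH-SY5Y cells was quantified by CellTiter-Glo 2.0.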
# HTT mRNA [2] = experiment: Splicing RT-qPCR assay (THP), Table 2A
# MYB mRNA [3] = experiment: Splicing RT-qPCR assay (THP), Table 2A
# HTT mRNA [4] = experiment: Gene panel canonical junction qPCR assay, decrease in CJ mRNA, Table 3
# Summary of the method: (§1)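 Eleven-point dose responses from 10 uM final, 24 h, DMSO ≤0.25%, in A673 or K562 cells. Relative quantification by 2^(−ΔΔCt) against housekeeper and vehicle was converted to percent response over fixed ΔCt windows and fitted to yield IC50.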
# MYB mRNA [5] = experiment: as above
# Summary of the method: as §1
# [6] = Table 2A (THP), AJ mRNA increase, read-out: HTT AJ (increase in alternative junction mRNA, AC50)
# [7] = Table 2A (THP), CJ mRNA decrease, read-out: HTT CJ (decrease in canonical junction mRNA, IC50)
# [8] = Table 2A (THP), AJ mRNA increase, read-out: MYB AJ (increase in alternative junction mRNA, AC50)
# [9] = Table 2A (THP), CJ mRNA decrease, read-out: MYB CJ (decrease in canonical junction mRNA, IC50)
# [10] = decrease in canonical junction (CJ) mRNA, gene panel qPCR, Table 3
# [11] = Table 2A, THP, HTT alternative junction (AJ) mRNA, read-out: HTT AJ (AC50, increase in alternative junction mRNA)
# [12] = Table 2A, THP, HTT canonical junction (CJ) mRNA, read-out: HTT CJ (IC50, decrease in canonical junction mRNA)
# [13] = Table 2A, THP, MYB alternative junction (AJ) mRNA, read-out: MYB AJ (AC50, increase in alternative junction mRNA)
# [14] = Table 2A, THP, MYB canonical junction (CJ) mRNA, read-out: MYB CJ (IC50, decrease in canonical junction mRNA)
# [15] = decrease in CJ mRNA levels, canonical junction qPCR, gene panel
Compound,GI50 [1],IC50 (HTT mRNA [2]; [7]),IC50 (MYB mRNA [3]; [9]),IC50 (HTT mRNA [4]; [10]),IC50 (MYB mRNA [5]; [10]),IC50 (HTT mRNA [2]; [12]),IC50 (MYB mRNA [3]; [14]),IC50 (HTT mRNA [4]; [15]),IC50 (MYB mRNA [5]; [15]),AC50 (HTT mRNA [2]; [6]),AC50 (MYB mRNA [3]; [8]),AC50 (HTT mRNA [2]; [11]),AC50 (MYB mRNA [3]; [13])
Cc1cn2cc(NC(=O)c3ccc(N4CC(C5CNC5)C4)c4cn(C)nc34)nc2c(C)n1 [Compound 498],> 10 µM,> 10 µM,> 10 µM,> 10 µM,> 10 µM,,,,,> 10 µM,> 10 µM,,
"CCNC1CCN(c2ccc(C(=O)Nc3cn4cc(CO)nc(C)c4n3)c3nn(C)cc23)CC1 [Compound 337, 4-(4-(ethylamino)piperidin-1-yl)-N-(6-(hydroxymethyl)-8-methylimidazo[1,2-a]pyrazin-2-yl)-2-methyl-2H-indazole-7-carboxamide 2,2,2-trifluoroacetate]",> 10 µM,> 10 µM,1 to 10 µM,> 10 µM,1 to 10 µM,,,,,> 10 µM,1 to 10 µM,,
"Cc1cn2cc(NC(=O)c3ccc(N4CCC(NC5CC5)CC4)c4cn(C)nc34)nc2c(CN(C)C)n1 [Compound 600, 4-(4-(cyclopropylamino)piperidin-1-yl)-N-(8-((dimethylamino)methyl)-6-methylimidazo[1,2-a]pyrazin-2-yl)-2-methyl-2H-indazole-7-carboxamide bis(2,2,2-trifluoroacetate)]",1 to 10 µM,,,> 10 µM,> 10 µM,> 10 µM,> 10 µM,,,,,> 10 µM,> 10 µM
Cc1cn2cc(NC(=O)c3ccc(NC4CCCNCC4)c4cn(C)nc34)nc2c(C)n1 (stereo not drawn) [Compound 536],> 10 µM,> 10 µM,> 10 µM,> 10 µM,> 10 µM,,,,,> 10 µM,> 10 µM,,
"COc1ncccc1NC(=O)c1c(F)cc(N2CCC(NC3CC3)CC2)c2cn(C)nc12 [Compound 412, 4-(4-(cyclopropylamino)piperidin-1-yl)-6-fluoro-N-(2-methoxypyridin-3-yl)-2-methyl-2H-indazole-7-carboxamide]",1 to 10 µM,> 10 µM,1 to 10 µM,> 10 µM,1 to 10 µM,,,,,> 10 µM,1 to 10 µM,,
COc1cc2c(N3CCC(NC4CC4)CC3)ccc(C(=O)Nc3cc(CNS(C)(=O)=O)c4nn(C)cc4c3)n2n1 [Compound 821],1 to 10 µM,,,,,1 to 10 µM,0.1 to 1 µM,1 to 10 µM,0.1 to 1 µM,,,> 10 µM,0.1 to 1 µM
"CCNC1CCN(c2ccc(C(=O)Nc3cn4cc(C)nc4cc3OC)c3nn(C)cc23)CC1 [Compound 323, 4-[4-(ethylamino)-1-piperidyl]-N-(7-methoxy-2-methyl-imidazo[1,2-a]-pyridin-6-yl)-2-methyl-indazole-7-carboxamide 2,2,2-trifluoroacetate]",1 to 10 µM,1 to 10 µM,0.1 to 1 µM,1 to 10 µM,0.1 to 1 µM,,,,,1 to 10 µM,0.1 to 1 µM,,
Cc1cn2cc(NC(=O)c3ccc(N(C)C4CCNCC4)c4cn(C)nc34)nc2c(C)n1 [Compound 564],0.1 to 1 µM,0.1 to 1 µM,0.1 to 1 µM,0.1 to 1 µM,0.1 to 1 µM,,,,,0.1 to 1 µM,0.1 to 1 µM,,
"Cc1cn2cc(NC(=O)c3ccc(N4CCC(NC5CC5)CC4)c4cn(C)nc34)nc2c(-c2ccn[nH]2)n1 [Compound 487, 4-(4-(cyclopropyl-amino)piperidin-1-yl)-2-methyl-N-(6-methyl-8-(1H-pyrazol-5-yl)imidazo[1,2-a]-pyrazin-2-yl)-2H-indazole-7-carboxamide 2,2,2-trifluoroacetate]",1 to 10 µM,1 to 10 µM,> 10 µM,1 to 10 µM,> 10 µM,,,,,> 10 µM,> 10 µM,,
CCNCc1nc(C)cn2cc(NC(=O)c3ccc(N4CCC(NC5CC5)CC4)c4cn(C)nc34)nc12 [Compound 812],1 to 10 µM,,,,,> 10 µM,> 10 µM,> 10 µM,> 10 µM,,,> 10 µM,> 10 µM
COc1nc2c(C(=O)Nc3cc(CNS(C)(=O)=O)c4nn(C)cc4c3)ccc(N3CCC(NC4CC4)CC3)c2s1 [Compound 843],> 10 µM,,,,,> 10 µM,> 10 µM,> 10 µM,> 10 µM,,,> 10 µM,> 10 µM
CNC1CCN(c2ccc(C(=O)Nc3cc4cn(C)nc4cc3OC)c3nn(C)cc23)C1 (stereo not drawn) [Compound 518],1 to 10 µM,1 to 10 µM,0.1 to 1 µM,1 to 10 µM,0.1 to 1 µM,,,,,1 to 10 µM,< 0.1 µM,,
"COc1nc2c(C(=O)Nc3cn4cc(C)nc(C)c4n3)ccc(N3C[C@H](C)N[C@@H](C)C3)c2s1 [Compound 711, N-(6,8-dimethylimidazo[1,2-a]pyrazin-2-yl)-7-[(3S,5S)-3,5-dimethylpiperazin-1-yl]-2-methoxy-1,3-benzothiazole-4-carboxamide]",1 to 10 µM,,,,,> 10 µM,1 to 10 µM,> 10 µM,1 to 10 µM,,,> 10 µM,1 to 10 µM
"Cc1cn2cc(NC(=O)c3ccc(N4CCC5(CCN5)CC4)c4cn(C)nc34)nc2c(C)n1 [Compound 563, 4-(1,7-diazaspiro[3.5]nonan-7-yl)-N-(6,8-dimethyl-imidazo[1,2-a]pyrazin-2-yl)-2-methyl-indazole-7-carboxamide]",> 10 µM,> 10 µM,0.1 to 1 µM,> 10 µM,0.1 to 1 µM,,,,,> 10 µM,0.1 to 1 µM,,

# The next lines start with results.
GI50 [1],IC50 (HTT mRNA [2]; [7]),IC50 (MYB mRNA [3]; [9]),IC50 (HTT mRNA [4]; [10]),IC50 (MYB mRNA [5]; [10]),IC50 (HTT mRNA [2]; [12]),IC50 (MYB mRNA [3]; [14]),IC50 (HTT mRNA [4]; [15]),IC50 (MYB mRNA [5]; [15]),Compound,AC50 (HTT mRNA [2]; [6]),AC50 (MYB mRNA [3]; [8]),AC50 (HTT mRNA [2]; [11]),AC50 (MYB mRNA [3]; [13])
0.1 to 1 µM,1 to 10 µM,< 0.1 µM,1 to 10 µM,< 0.1 µM,,,,,"COc1c(NC(=O)c2c(F)cc(N3CC[C@@H](NC4CC4)C4(CC4)C3)c3cn(C)nc23)cn2cc(C)nc2c1F [Compound 368, 4-[(8R)-8-(cyclopropylamino)-5-azaspiro[2.5]octan-5-yl]-6-fluoro-N-(8-fluoro-7-methoxy-2-methyl-imidazo[1,2-a]pyridin-6-yl)-2-methyl-indazole-7-carboxamide]",1 to 10 µM,< 0.1 µM,,
0.1 to 1 µM,1 to 10 µM,< 0.1 µM,1 to 10 µM,< 0.1 µM,,,,,"CCNC1CCN(c2ccc(C(=O)Nc3cc(Cc4ccccc4)c4nc(C)cn4c3)c3nn(C)cc23)CC1 [Compound 338, N-(8-benzyl-2-methylimidazo-[1,2-a]pyridin-6-yl)-4-[4-(ethylamino)-1-piperidyl]-2-methyl-indazole-7-carboxamide]",1 to 10 µM,< 0.1 µM,,
0.1 to 1 µM,0.1 to 1 µM,0.1 to 1 µM,0.1 to 1 µM,0.1 to 1 µM,,,,,"COc1c(NC(=O)c2c(F)cc(N3CCC(NC4CC4)CC3)c3cn(C)nc23)cn2cc(C)nc2c1C#N [Compound 320, N-(8-cyano-7-methoxy-2-methyl-imidazo[1,2-a]pyridin-6-yl)-4-[4-(cyclopropylamino)-1-piperidyl]-6-fluoro-2-methyl-indazole-7-carboxamide]",0.1 to 1 µM,0.1 to 1 µM,,
0.1 to 1 µM,1 to 10 µM,0.1 to 1 µM,1 to 10 µM,0.1 to 1 µM,,,,,Cc1cn2cc(NC(=O)c3c(F)cc(N4CCC(NC5CC5)CC4)c4cn(C)nc34)cc(Oc3ccccn3)c2n1 [Compound 399],1 to 10 µM,< 0.1 µM,,
0.1 to 1 µM,> 10 µM,> 10 µM,> 10 µM,> 10 µM,,,,,"Cc1c2cc(NC(=O)c3c(F)cc(N4CCC(NC5CC5)CC4)c4cn(C)nc34)cc(F)c2nn1C [Compound 403, 4-[4-(cyclopropyl-amino)-1-piperidyl]-6-fluoro-N-(7-fluoro-2,3-dimethyl-indazol-5-y1)-2-methyl-indazole-7-carboxamide]",> 10 µM,> 10 µM,,
0.1 to 1 µM,,,,,0.1 to 1 µM,< 0.1 µM,0.1 to 1 µM,< 0.1 µM,"COc1cc2nn(C)cc2cc1NC(=O)c1ccc(N2CCC(NC3CC3)CC2)c2cc(CF)nn12 [Compound 625, 4-[4-(cyclopropylamino)-1-piperidyl]-2-(fluoromethyl)-N-(6-methoxy-2-methyl-indazol-5-yl)pyrazolo[1,5-a]-pyridine-7-carboxamide]",,,0.1 to 1 µM,< 0.1 µM
0.1 to 1 µM,,,,,0.1 to 1 µM,0.1 to 1 µM,0.1 to 1 µM,0.1 to 1 µM,COc1nc2c(C(=O)Nc3cc(F)c4nn(C)cc4c3)ccc(N3CC[C@H](NC(C)(C)C)C3)c2s1 [Compound 770],,,0.1 to 1 µM,0.1 to 1 µM
